These are literature values, as cited in patent US20070297988A1, “Optical probes for in vivo imaging” (priority 2006, published 2007).

For data set [1] the following is noted: administered intravenously.
For data set [2] the following is noted: degradation accelerated by light and heat.

Consider `CC1(C)C(/C=C/C=C/C=C/C=C2\N(CCCCS(=O)(=O)O)c3ccc4ccccc4c3C2(C)C)=[N+](CCCCS(=O)(=O)[O-])c2ccc3ccccc3c21` [ICG, indocyanine green], for which, in data set [1], the plasmatic half-life is 2 to 4 min and the protein binding result was “extensive protein binding”. Moreover, in data set [2], the “stability in aqueous solution” value was “degraded in aqueous solution”.
